Measurements reported in patent US20130143929A1, “FUNGICIDAL IMIDAZOLES” (EI DU PONT DE NEMOURS AND COMPANY, priority 2010, published 2013).
Marks after values point to notes of the source that are not given here.

Legend:
Format in all cases: in vivo
[1] = system: Puccinia recondite f. sp. tritici (the causal agent of wheat leaf rust); experiment: Test A: wheat leaf rust, preventive spray on wheat seedlings, visual disease rating; conditions: for Test A rating (100 = 100% disease control, 0 = no disease control relative to the controls): wheat leaf rust, preventive spray on wheat seedlings
Procedure, shortened: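 This was a preventive test: Puccinia recondite f. sp. tritici inoculum was applied one day after compound spray to run-off. Test suspensions were made in 50/50 acetone/water with 250 ppm surfactant, at 200 ppm (800 g/ha equivalent) or 40 ppm. Visual ratings of % disease control relative to controls were made after 24 h of saturated humidity and 7 growth-chamber days, all at 20° C.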

[2] = system: Blumeria graminis f. sp. tritici (also known as Erysiphe graminis f. sp. tritici, the causal agent of wheat powdery mildew); experiment: Test D: wheat powdery mildew, preventive spray on wheat seedlings, visual disease rating; conditions: for Test D rating (100 = 100% disease control, 0 = no disease control relative to the controls): wheat powdery mildew, preventive spray on wheat seedlings
Procedure, shortened: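 Preventive test: seedlings sprayed to run-off and inoculated with powdery mildew spores one day later. Suspensions were made in 50/50 acetone/water with 250 ppm Trem 014 surfactant (200 ppm equals 800 g/ha). Visual ratings after 8 days at 20 °C give percent disease control versus controls.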

[3] = system: Septoria tritici (the causal agent of wheat leaf blotch); experiment: Test B: wheat leaf blotch, preventive spray on wheat seedlings, visual disease rating; conditions: for Test B rating (100 = 100% disease control, 0 = no disease control relative to the controls): wheat leaf blotch, preventive spray on wheat seedlings
Procedure, shortened: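 Preventive test: Septoria tritici spores applied one day after run-off spraying of seedlings (200 ppm equals 800 g/ha; some tests 40 ppm). After 48 h at 24 °C saturated atmosphere and 19 days at 20 °C, disease scored visually as % control relative to untreated plants.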

[4] = system: Botrytis cinerea (the causal agent of tomato Botrytis); experiment: Test C: tomato Botrytis, preventive spray on tomato seedlings, visual disease rating; conditions: for Test C rating (100 = 100% disease control, 0 = no disease control relative to the controls): tomato Botrytis, preventive spray on tomato seedlings
Procedure, shortened: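 Preventive test: B. cinerea spore inoculation one day after tomato seedlings were sprayed to run-off with compound suspended in 50/50 acetone–water plus 250 ppm surfactant. Plants held 48 h at 20° C in saturated air, then 3 days at 24° C; visual ratings scored 100 (full control) to 0 versus controls; some entries used 40 ppm.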

[5] = asterisk: 40 ppm test suspension
[6] = no asterisk (standard test suspension concentration, not 40 ppm)
[7] = asterisk: 40 ppm test suspension, 100 = 100% disease control, 0 = no control

SMILES | Test A rating (100 = 100% disease control, 0 = no disease control relative to the controls) [1, 5] | Test D rating (100 = 100% disease control, 0 = no disease control relative to the controls) [2, 5] | Test B rating (100 = 100% disease control, 0 = no disease control relative to the controls) [3, 5] | Test C rating (100 = 100% disease control, 0 = no disease control relative to the controls) [4, 5] | Test A rating (100 = 100% disease control, 0 = no disease control relative to the controls) [1, 6] | Test D rating (100 = 100% disease control, 0 = no disease control relative to the controls) [2, 6] | Test B rating (100 = 100% disease control, 0 = no disease control relative to the controls) [3, 6] | Test C rating (100 = 100% disease control, 0 = no disease control relative to the controls) [4, 6] | other results
Cc1nc(C)n(-c2c(F)cc(Cl)cc2F)c1C(O)c1ccc(F)cc1F (racemic) [compound 246] | 100* % | 0* % | 100* % | 37* % |  |  |  |  | 
Cc1ncc(C(O)c2ccc(F)cc2Cl)n1-c1c(F)cc(F)cc1Cl (stereo not drawn) [compound 370] |  |  |  |  | 100% | 0% | 100% | 100% | 
OC(c1ccc(F)cc1F)c1c(Cl)ncn1-c1c(F)cc(F)cc1Cl (stereo not drawn) [compound 118] | 100* % |  | 100* % | 91* % |  | 48% |  |  | 
Cc1nc(Br)c(C(O)c2ccc(F)cc2Cl)n1-c1c(F)cccc1Br (stereo not drawn) [compound 134] |  |  |  |  | 100% | 98% | 100% | 100% | 
OC(c1c(F)cc(F)cc1F)c1c(Cl)nc(Cl)n1-c1ccc(Cl)cc1Cl (stereo not drawn) [compound 90] |  |  |  |  | 100% | 99% | 100% | 98% | 
COc1cc(F)c(C(O)c2c(Cl)nc(C)n2-c2ccc(F)cc2F)c(F)c1 (racemic) [compound 269] | 100* % | 0* % | 96* % | 66* % |  |  |  |  | 
COc1ccc(C(O)c2cnc(C)n2-c2ccc(F)cc2F)c(F)c1 (racemic) [compound 283] | 41* % | 0* % | 0* % | 0* % |  |  |  |  | 
Cc1cccc(Br)c1-n1c(C)nc(Cl)c1C(O)c1ccc(F)cc1F (stereo not drawn) [compound 338] | 94* % | 56* % | 93* % | 70* % |  |  |  |  | 
COc1ccc(C(O)c2c(Br)nc(C)n2-c2c(F)cccc2Cl)c(F)c1 (racemic) [compound 275] | 100* % | 99* % | 100* % | 100* % |  |  |  |  | 
Cc1cccc(C)c1-n1c(C)nc(Br)c1C(O)c1ccc(F)cc1Cl (racemic) [compound 225] |  |  |  |  | 89% | 0% | 83% | 37% | 
COc1cc(F)c(-n2c(C)nc(Cl)c2C(O)c2ccc(F)cc2F)c(F)c1 (stereo not drawn) [compound 411] |  |  |  |  |  |  |  |  | Test A rating (% disease control, wheat leaf rust) [1, 7]: 100* %; Test D rating (% disease control, wheat powdery mildew) [2, 7]: 50* %; Test B rating (% disease control, wheat leaf blotch) [3, 7]: 100* %; Test C rating (% disease control, tomato Botrytis) [4, 7]: 85* %
OC(c1ccc(F)cc1F)c1c(Cl)ncn1-c1c(F)cc(Cl)cc1F (stereo not drawn) [compound 120] | 98* % | 0* % | 100* % | 99* % |  |  |  |  | 
